Measurements taken from patent US12630532B2, “Indole-substituted quinolines and their combination with Plk1 inhibitors for the treatment of cancer” (UNIVERSITY OF KENTUCKY RESEARCH FOUNDATION, priority 2021, dated 2026).

Experiments:
[1] = tested on: mitochondrial ETC complex I; assay: Mitochondrial ETC complex activity measurements using PMP-permeabilized cells; format: cell-based
Experimental: Mitochondrial ETC complex activity measurements were taken using the Agilent Seahorse Assay with XF PMP (Agilent, Santa Clara, CA) following manufacturer's instructions. Adherent monolayer cells were gently washed with mitochondrial assay solution (MAS) (220 mM mannitol, 70 mM sucrose, 10 mM KH2PO4, 5 mM MgCl2, 2 mM HEPES, 1 mM EGTA, and 0.2% (w/v) fatty acid free BSA) and cell growth media was replaced with MAS supplemented with 4 mM adenosine diphosphate (ADP), 10 mM pyruvate, and 1 nM PMP. Following calibration, the assay was immediately performed by measuring baseline with two cycles of 0.5 min mixing, 0.5 min waiting, and 2 min measuring. After baseline measurements, sequential injections of DMSO, compounds of interest or 2 μM rotenone, 10 mM succinate, 2 μM antimycin A, and a combination of 10 mM ascorbate and 100 μM TMPD were also performed with each followed by two cycles of 0.5 min mixing, 0.5 min waiting, and 2 min measuring. Data were then normalized to cell counts using the Biotek Cytation 1 (BioTek Instruments, Winooski, VT, USA).

Solubility comparison = format: physicochemical; settings: relative comparison
[2] = tested on: Wnt signaling target genes c-Myc and axin2; assay: Western blotting of Wnt signaling target genes in LS174T cells; format: cell-based; settings: 24 hours
Experimental: (§1) Western blotting were performed according to previous procedures (25). Cells were split into 12-well plates. After 24 hours, compounds at indicated final concentrations were added to each well for another 24 hours unless otherwise noted. DMSO was used as a control. Cells were lysed in the appropriate volume of lysis buffer: 50 mM HEPES, 100 mM NaCl, 2 mM EDTA, 1% (v/v) glycerol, 50 mM NaF, 1 mM Na3VO4, 1% (v/v) Triton X-100, with protease inhibitors. Cell lysates were centrifuged, and supernatants were mixed with 6× protein loading buffer and boiled. The obtained samples were analyzed with standard western blotting methods with indicated antibodies.

[3] = tested on: mitochondrial ETC (electron transport chain); assay: Seahorse assay (OCR) in Beas-2B cells; format: cell-based
Experimental: (§2) Seahorse assays were carried out following a published procedure (25). Briefly, 2.5×10^4 cells in 80 μL of medium were seeded in XF96 Cell Culture microplate for all experiments. On the next day, cell culture media were replaced with Seahorse XF modified media. Cells were treated with 1 μM of oligomycin A, 1.0 μM FCCP and mixture of 1.0 μM of rotenone and 1.0 μM of antimycin A in standard mitochondrial stress test conditions. To determine the uncoupler effects, FCCP was replaced with an equal volume of DMSO, or a compound to be tested in DMSO solution.

[4] = tested on: liver cancer cell line HepG2; assay: Cell proliferation inhibition assay; format: cell-based; settings: HepG2, 5 days (FIG. 1B)
Experimental: (§3) Cell proliferation inhibition assays were done following a previous report (32). Cancer cells were seeded into 24-well plates at a density of 20,000 cells per well in 1 mL of culture medium and were cultured overnight at 37° C. Compounds and the vehicle control (DMSO) were added to the cells. After 5 days, the medium was removed, and 100 μL of trypsin was added. The cells were resuspended in phosphate-buffered saline (PBS) and were counted by Vi-CELL XR 2.03 (Beckman Coulter, Inc. USA). The ratio R of the number of viable cells in the compound treatment group to the number of viable cells in DMSO treatment group was taken as relative growth, and the percentage growth inhibition was calculated as (1−R)*100.

[5] = tested on: prostate cancer cell line PC-3; assay: Cell proliferation inhibition assay; format: cell-based; settings: PC-3, 5 days (FIG. 1B)
Experimental: as §3

[6] = tested on: sarcoma cell line SK-LMS-1; assay: Cell proliferation inhibition assay; format: cell-based; settings: SK-LMS-1, 5 days (FIG. 1B)
Experimental: as §3

Plk1 = assay: Western blotting of cell signaling pathways in LS174T cells; format: cell-based; settings: LS174T colon cancer cells, 24 hours
Experimental: as §1

[7] = tested on: mitochondrial ETC (electron transport chain); assay: Seahorse assay (OCR) in LS174T cells; format: cell-based
Experimental: as §2

[8] = tested on: mouse colon cancer organoids; assay: Colon cancer organoids from Apc^f/+/Kras^LSL-G12D/Villin-Cre mouse model; format: cell-based
Experimental: The colon cancer organoids were isolated from Apc^f/+/Kras^LSL-G12D/Villin-Cre mouse model (38). Using 48-well drug screening to assess how compounds affected organoid colony formation, the Matrigel containing organoids was digested by 300 μL dispase. The gel was removed by 1,000×5 min spinning. The organoids were digested into single cells by 1 mL Trypsin and washed with 10 mL of ADF12. For each well, 80 μL of Matrigel was added to the bottom and 1000 cells in 60 μL Matrigel were added to the top. The cells were cultured in 250 μL of 3D complete medium (Advanced DMEM/F12 supplemented with 1×N-2, 1×B-27, 1 mM N-acetylcysteine and 1% penicillin/streptomycin). The cells were treated with DMSO or testing compounds and total number of organoids with diameter greater than 50 μm were analyzed and manually counted using microscope.
After 3 days when organoids formed, fresh culture media were supplied, and compounds were added for additional 3 days. Organoid viability was measured using CellTiter-Glo® 3D Cell Viability Assay (Promega) following manufacturer's protocol.

LS174T cells = assay: Cell proliferation inhibition assay (5 days, cell counting); format: cell-based
Experimental: as §3

TOPFlash Wnt reporter = TOPFlash Wnt reporter assay in stable HEK293T cells; format: cell-based; settings: 24 hours treatment
Experimental: Wnt reporter assay was described previously (25). We subcloned Super 8×TOPFlash (provided by Professor Randall Moon, University of Washington) into the pGL4.83 [hRlucP/Puro] Vector and transfected it into HEK293T cells. A stable HEK293T cell line containing the TOPFlash reporter was established using puromycin selection (25). To assess if compounds of interest blocked the downstream signaling transduction pathway of β-catenin, the stable reporter cells were seeded to a 12-well plate and treated with 25 mM LiCl to stabilize β-catenin for 16 hours to activate Wnt signaling and then candidate compounds at predetermined concentrations for another 24 hours. The cells were lysed and centrifuged to obtain supernatants which were analyzed by FB 12 Single Tube Luminometer by Titertek-Berthold (Berthold Detection Systems GmbH, Elsässerstr, Germany).

Structure (SMILES): CN(C)c1ccc2cc(-c3cn(C)c4ccccc34)c(N)nc2c1 [ISQ-1, N^7,N^7-Dimethyl-3-(1-methyl-1H-indol-3-yl)quinoline-2,7-diamine]
- ETC complex I inhibition (pyruvate/NADH-linked respiration) ([1]; pyruvate substrate): inhibited complex I
- inhibition of complexes II, III, or IV (respiration after succinate) ([1]; succinate added): ruled out the possibility that ISQ-1 inhibited complexes II, III, or IV
- solubility (Solubility comparison): better than that of ISQ-7
- effect on Wnt signaling target genes c-Myc and axin2 [2]: inhibited
- ETC complex V inhibition (oligomycin replaced with compound) [3]: did not inhibit ETC complex V
- uncoupler effect (FCCP replaced with compound) [3]: no uncouplers
- inhibited in vitro cell growth [4]: nanomolar concentrations
- inhibited in vitro cell growth [5]: nanomolar concentrations
- inhibited in vitro cell growth [6]: nanomolar concentrations
- Plk1 expression upon drug treatment (Plk1): induced
- ETC complex V inhibition (oligomycin replaced with compound) [7]: did not inhibit ETC complex V
- organoid growth (CellTiter-Glo 3D viability) ([8]; 3-day treatment after organoids formed): inhibited organoid growth in a dose-dependent manner
- tumor organoid formation from single cells ([8]; day 7): inhibited tumor organoid formation from single cells
- percentage inhibition of LS174T cell proliferation at 500 nM, compared among ISQs (FIG. 2B) (LS174T cells; 500 nM): more active
- inhibition at 0.062 µM (LS174T cells; Homo sapiens, LS174T, 120 h, 62 nM, 5 days): 16 ± 2%
- inhibition at 0.125 µM (LS174T cells; Homo sapiens, LS174T, 120 h, 125 nM, 5 days): 22 ± 5%
- inhibition at 0.25 µM (LS174T cells; Homo sapiens, LS174T, 120 h, 250 nM, 5 days): 38 ± 2.2%
- inhibition at 0.5 µM (LS174T cells; Homo sapiens, LS174T, 120 h, 500 nM, 5 days): 91 ± 4.3%
- inhibition at 0.3 µM (LS174T cells; Homo sapiens, LS174T, read-out: Inhibition % on LS174T cells Proliferation 0.3 uM Inhib. %): 83.9%
- inhibition at 1 µM (LS174T cells; Homo sapiens, LS174T, read-out: Inhibition % on LS174T cells Proliferation 1 uM Inhib. %): 92.7%
- inhibition at 3 µM (LS174T cells; Homo sapiens, LS174T, read-out: Inhibition % on LS174T cells Proliferation 3 uM Inhib. %): 99.3%
- inhibited in vitro cell growth (LS174T cells; LS174T, 5 days (FIG. 1B)): nanomolar concentrations
- TOPFlash Wnt reporter luciferase luminescence (TOPFlash Wnt reporter): inhibited TOPFlash Wnt reporter
